{"source": "patent US20200368249A1", "about": "(priority 2017, published 2020)", "key": {"Mtb-lux": {"system": "Mtb-lux", "assay_type": "cell-based, M. tuberculosis CDC1551"}, "[1]": {"system": "J774A.1 macrophage cell line", "assay": "cytotoxicity assay (resazurin)", "assay_type": "cell-based", "conditions": "J774 macrophages, 24 h", "method": "Cytotoxicity was assessed on J774A.1 (ATCC® TIB67™) macrophage cell line. Macrophages were cultured in Dulbecco's Modified Eagle Medium (DMEM, GIBCO) supplemented with 10% heat inactivated fetal calf serum (Atlanta Biologicals), 1 mM sodium pyruvate (CellGro), 2 mM L-glutamine (CORNING) and 1% PenStrep (100 U/mL Penicillin, […] Streptomycin, GIBCO). Macrophages were seeded in a 384-well black transparent bottom plate (Corning) at 2.5×10^4 cells/well. After macrophages were allowed to adhere for 4-6 h, a two-fold dilution series of the compounds (200-0.006 μM) and controls (2% Triton X and 0.5% DMSO) were added to the wells. The plate was incubated for 24 h and then 1/10th volume of resazurin dye was added. Fluorescence was measured following 4 h incubation with the dye at an excitation of 560 nm and emission at 590 nm with cell viability indicated by conversion of resazurin to fluorescent product resofurin. Viability is determined as percent growth calculated relative to the DMSO control."}, "EcTopo1": {"biological_target": "EcTopo1 (Escherichia coli, UniProt P06612)", "sequence (P06612 whole entry)": "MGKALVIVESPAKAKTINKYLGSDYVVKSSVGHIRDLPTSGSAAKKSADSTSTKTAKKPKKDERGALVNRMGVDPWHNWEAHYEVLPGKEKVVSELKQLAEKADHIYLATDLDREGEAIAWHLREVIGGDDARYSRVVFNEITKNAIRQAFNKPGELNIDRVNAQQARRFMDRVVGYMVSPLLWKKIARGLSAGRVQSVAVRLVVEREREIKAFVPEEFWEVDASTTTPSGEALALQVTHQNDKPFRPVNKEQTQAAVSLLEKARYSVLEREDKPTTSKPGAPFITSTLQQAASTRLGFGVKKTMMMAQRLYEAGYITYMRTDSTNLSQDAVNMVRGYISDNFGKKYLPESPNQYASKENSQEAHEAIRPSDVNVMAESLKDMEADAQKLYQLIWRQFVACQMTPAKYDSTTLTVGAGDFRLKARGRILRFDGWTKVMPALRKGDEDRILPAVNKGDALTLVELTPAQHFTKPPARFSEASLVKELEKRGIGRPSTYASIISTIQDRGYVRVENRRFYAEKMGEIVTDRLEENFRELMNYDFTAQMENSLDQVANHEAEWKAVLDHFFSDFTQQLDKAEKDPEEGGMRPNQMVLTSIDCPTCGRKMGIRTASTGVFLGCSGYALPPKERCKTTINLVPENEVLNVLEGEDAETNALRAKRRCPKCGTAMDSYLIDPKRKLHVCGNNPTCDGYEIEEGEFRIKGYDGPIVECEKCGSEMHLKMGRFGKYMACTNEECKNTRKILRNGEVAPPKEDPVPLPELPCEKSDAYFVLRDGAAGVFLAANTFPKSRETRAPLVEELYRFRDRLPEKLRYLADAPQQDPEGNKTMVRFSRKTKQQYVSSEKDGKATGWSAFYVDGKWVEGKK", "excerpt": "(§1) In FIGS. 7A and 7B, R indicates relaxed circular DNA; PR indicates partially relaxed DNA; and SC indicates supercoiled DNA."}, "MtbTopo1": {"biological_target": "MtbTopo1 (Mycobacterium tuberculosis, UniProt P9WG49)", "sequence (P9WG49 whole entry, looked up)": "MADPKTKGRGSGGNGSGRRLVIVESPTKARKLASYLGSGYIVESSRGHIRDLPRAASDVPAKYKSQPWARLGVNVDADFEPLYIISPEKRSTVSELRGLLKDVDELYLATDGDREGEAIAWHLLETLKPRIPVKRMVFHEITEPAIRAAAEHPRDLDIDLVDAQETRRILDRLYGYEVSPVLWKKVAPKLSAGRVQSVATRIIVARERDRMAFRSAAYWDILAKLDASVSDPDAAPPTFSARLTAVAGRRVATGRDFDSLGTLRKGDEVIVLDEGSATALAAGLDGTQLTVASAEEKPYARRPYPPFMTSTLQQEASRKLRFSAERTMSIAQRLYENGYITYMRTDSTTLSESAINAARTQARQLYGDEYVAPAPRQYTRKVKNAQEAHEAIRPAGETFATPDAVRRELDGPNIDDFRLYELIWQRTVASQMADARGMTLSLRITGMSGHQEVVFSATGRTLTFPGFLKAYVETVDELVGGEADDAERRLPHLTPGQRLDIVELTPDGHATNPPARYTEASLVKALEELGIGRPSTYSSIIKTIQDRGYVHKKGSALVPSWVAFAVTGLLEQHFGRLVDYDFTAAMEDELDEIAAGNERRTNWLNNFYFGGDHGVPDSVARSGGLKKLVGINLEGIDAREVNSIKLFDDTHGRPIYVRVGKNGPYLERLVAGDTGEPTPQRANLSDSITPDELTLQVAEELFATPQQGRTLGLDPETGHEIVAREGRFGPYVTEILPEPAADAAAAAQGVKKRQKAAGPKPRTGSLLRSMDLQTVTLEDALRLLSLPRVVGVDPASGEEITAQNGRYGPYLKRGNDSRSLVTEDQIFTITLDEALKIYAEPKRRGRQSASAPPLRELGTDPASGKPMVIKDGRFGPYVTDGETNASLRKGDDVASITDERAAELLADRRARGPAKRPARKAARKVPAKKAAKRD", "assay": "topoisomerase 1A relaxation assay, MtbTopo1", "assay_type": "biochemical, M. tuberculosis", "excerpt": "as §1"}, "E. coli gyrase": {"biological_target": "E. coli gyrase (Escherichia coli, UniProt P0AES4+P0AES6)", "sequence (P0AES4 whole entry, one chain of several)": "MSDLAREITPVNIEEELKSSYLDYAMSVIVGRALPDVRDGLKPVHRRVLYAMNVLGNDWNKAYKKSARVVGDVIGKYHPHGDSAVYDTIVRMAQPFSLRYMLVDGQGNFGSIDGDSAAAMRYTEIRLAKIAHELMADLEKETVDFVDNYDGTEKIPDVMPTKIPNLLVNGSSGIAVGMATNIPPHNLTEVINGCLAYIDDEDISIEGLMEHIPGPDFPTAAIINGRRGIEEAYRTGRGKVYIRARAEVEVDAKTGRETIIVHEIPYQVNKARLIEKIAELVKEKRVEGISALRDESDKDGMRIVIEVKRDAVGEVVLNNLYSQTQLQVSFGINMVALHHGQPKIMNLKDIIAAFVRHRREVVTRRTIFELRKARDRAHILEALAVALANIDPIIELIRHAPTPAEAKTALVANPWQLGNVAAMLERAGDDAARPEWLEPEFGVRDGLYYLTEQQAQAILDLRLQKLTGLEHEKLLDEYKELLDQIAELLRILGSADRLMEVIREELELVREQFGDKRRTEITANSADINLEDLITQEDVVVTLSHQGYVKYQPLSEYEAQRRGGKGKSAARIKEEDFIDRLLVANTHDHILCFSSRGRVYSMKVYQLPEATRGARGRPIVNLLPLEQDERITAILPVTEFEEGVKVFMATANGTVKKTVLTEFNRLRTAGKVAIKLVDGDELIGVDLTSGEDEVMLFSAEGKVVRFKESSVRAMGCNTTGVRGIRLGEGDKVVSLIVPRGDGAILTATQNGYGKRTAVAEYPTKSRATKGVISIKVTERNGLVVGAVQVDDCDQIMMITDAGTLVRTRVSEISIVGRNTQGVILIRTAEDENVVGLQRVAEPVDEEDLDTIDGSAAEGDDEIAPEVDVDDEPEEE", "description": "(§2) In FIG. 8A-FIG. 8D, the IC50 was determined as the drug concentration which inhibited 50% of the supercoiling activity."}, "M. tuberculosis gyrase": {"biological_target": "M. tuberculosis gyrase (Mycobacterium tuberculosis, UniProt P9WG45+P9WG47)", "sequence (P9WG45 whole entry, looked up)": "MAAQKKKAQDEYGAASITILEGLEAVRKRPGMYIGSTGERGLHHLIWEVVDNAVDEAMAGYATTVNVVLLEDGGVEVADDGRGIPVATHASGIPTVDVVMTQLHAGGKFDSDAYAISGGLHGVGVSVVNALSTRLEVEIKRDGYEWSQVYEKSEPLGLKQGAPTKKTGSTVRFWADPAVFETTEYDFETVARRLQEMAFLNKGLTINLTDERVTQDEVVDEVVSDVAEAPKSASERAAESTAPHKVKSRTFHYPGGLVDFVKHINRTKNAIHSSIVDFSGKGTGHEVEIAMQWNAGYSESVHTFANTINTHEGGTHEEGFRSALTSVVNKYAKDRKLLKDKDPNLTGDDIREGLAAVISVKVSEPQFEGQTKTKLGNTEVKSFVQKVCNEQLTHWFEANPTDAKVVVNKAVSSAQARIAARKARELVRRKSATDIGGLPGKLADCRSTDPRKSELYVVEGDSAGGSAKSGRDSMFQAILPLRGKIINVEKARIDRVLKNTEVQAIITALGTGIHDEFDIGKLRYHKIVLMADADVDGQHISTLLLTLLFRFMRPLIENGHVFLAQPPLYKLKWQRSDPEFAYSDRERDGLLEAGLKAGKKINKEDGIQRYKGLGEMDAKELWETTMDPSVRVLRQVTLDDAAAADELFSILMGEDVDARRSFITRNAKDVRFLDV", "sequence (P9WG47 whole entry, looked up)": "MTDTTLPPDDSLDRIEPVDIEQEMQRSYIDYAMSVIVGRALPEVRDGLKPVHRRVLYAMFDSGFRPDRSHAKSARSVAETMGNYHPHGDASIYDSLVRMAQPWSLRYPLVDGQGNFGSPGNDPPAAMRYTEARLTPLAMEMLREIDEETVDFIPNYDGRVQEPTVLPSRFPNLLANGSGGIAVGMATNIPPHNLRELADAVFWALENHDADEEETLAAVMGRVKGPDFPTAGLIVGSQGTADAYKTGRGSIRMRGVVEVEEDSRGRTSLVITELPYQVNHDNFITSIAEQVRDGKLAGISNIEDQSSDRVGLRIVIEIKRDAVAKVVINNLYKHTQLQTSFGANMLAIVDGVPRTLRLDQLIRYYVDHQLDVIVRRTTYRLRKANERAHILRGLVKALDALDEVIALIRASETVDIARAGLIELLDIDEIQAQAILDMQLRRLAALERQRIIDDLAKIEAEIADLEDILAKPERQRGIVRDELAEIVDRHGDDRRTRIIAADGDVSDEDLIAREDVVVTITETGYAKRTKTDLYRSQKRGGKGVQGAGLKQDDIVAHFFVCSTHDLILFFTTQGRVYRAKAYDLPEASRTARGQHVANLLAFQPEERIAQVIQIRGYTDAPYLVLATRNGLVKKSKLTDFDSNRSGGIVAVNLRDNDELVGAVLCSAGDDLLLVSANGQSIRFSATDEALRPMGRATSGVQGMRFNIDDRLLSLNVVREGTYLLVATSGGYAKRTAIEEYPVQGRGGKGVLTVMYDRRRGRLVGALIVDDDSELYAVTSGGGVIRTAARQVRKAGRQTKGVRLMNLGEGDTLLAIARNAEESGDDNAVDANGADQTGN", "description": "as §2"}, "Mab 390S-lux": {"system": "Mab 390S-lux", "assay_type": "cell-based, M. abscessus 390S"}, "tolerability of mice": {"assay": "tolerability of mice", "assay_type": "in vivo", "conditions": "400 mg/kg, preliminary work"}, "Mtb CDC1551": {"system": "Mtb CDC1551", "assay": "time-kill kinetic assay, Mtb", "assay_type": "cell-based, M. tuberculosis", "conditions": "for mode of action against Mtb: actively replicating Mtb", "method": "To examine whether bacterial killing is concentration and/or time-dependent, a time-kill kinetic study was carried out with 8, 10, 11, 14, and 15. For Mtb, CDC1551 cultures diluted to an OD of 0.01 in 7H9 were added to a solid-white 384-well plate containing compounds at final concentrations of 0, 1×, 4× and 8× MIC in a total volume of 30 μl. DMSO control was also included. The plate was incubated for 6 days for Mtb. At every time point-0, 24, 48 and 72 h post-inoculation, an aliquot was taken, serially diluted and 50 μl plated onto 7H10 quad-plates supplemented with OADC. Colonies were counted after 3-4 weeks of incubation at 37° C. and CFU/ml was calculated. […] The plate was incubated for 3 days and colonies were counted after 5 days of incubation following plating. A 1-2 log10 decrease in CFU/ml is considered bactericidal. Luminescence was also read at every time point before taking an aliquot for serial dilution."}, "[2]": {"assay": "reductive demetallation by glutathione", "assay_type": "physicochemical"}, "Mtb": {"system": "Mtb", "conditions": "cited from earlier work"}, "Mab": {"system": "Mab", "conditions": "even at 32 and 64-fold MIC; cited from earlier work"}}, "note": "Where “and” joins values, the source holds several entries; their conditions need not be identical. Equal entries are not always repeated."}
{"smiles": "C1=NCCCCN=Cc2ccc3[n]2[Au+][n]2c1ccc2-c1nc2ccccc2nc1-3.F[P-](F)(F)(F)(F)F", "note": "[Compound 10]", "values": [{"measurement": "MIC Mtb", "setting": "Mtb-lux", "value": 0.12, "unit": "µM"}, {"measurement": "IC50", "setting": "[1]", "value": 85.8, "unit": "µM"}, {"measurement": "inhibition of topoisomerase I (EcTopo1 relaxation)", "setting": "EcTopo1", "value": "able to inhibit topoisomerase I"}, {"measurement": "inhibition of topoisomerase I (MtbTopo1 relaxation)", "setting": "MtbTopo1", "value": "able to inhibit topoisomerase I"}, {"measurement": "activity against topoisomerase II (E. coli gyrase supercoiling)", "setting": "E. coli gyrase", "value": "neither had significant activity"}, {"measurement": "activity against topoisomerase II (M. tuberculosis gyrase supercoiling)", "setting": "M. tuberculosis gyrase", "value": "neither had significant activity"}, {"measurement": "MIC Mab", "setting": "Mab 390S-lux", "value": "5.4 µM and 5.44 µM"}, {"measurement": "tolerability", "setting": "tolerability of mice", "value": "tolerated"}, {"measurement": "mode of action against Mtb", "setting": "Mtb CDC1551", "value": "almost completely bacteriostatic"}, {"measurement": "decrease relative to vehicle control", "setting": "Mtb CDC1551; at 64-fold MIC", "value": 1, "unit": "log"}, {"measurement": "loss of the Au(III) ion", "setting": "[2]", "value": "cannot be lost since it is very tightly bound"}]}
{"smiles": "CC(=O)OC[C@H]1O[C@@H]([S-])[C@H](OC(C)=O)[C@@H](OC(C)=O)[C@@H]1OC(C)=O.CCP(CC)CC.[Au+]", "note": "[auranofin]", "values": [{"measurement": "activity against Mtb", "setting": "Mtb", "value": "bactericidal"}]}
{"smiles": "CCOC1CN=Cc2ccc[n]2[Au+][n]2cccc2C=NC1.F[P-](F)(F)(F)(F)F", "note": "(centres unmarked) [Compound 15]", "values": [{"measurement": "MIC Mtb", "setting": "Mtb-lux", "value": 4.61, "unit": "µM"}, {"measurement": "IC50", "setting": "[1]", "value": 48.9, "unit": "µM"}, {"measurement": "MIC Mab", "setting": "Mab 390S-lux", "value": 13.05, "unit": "µM"}, {"measurement": "mode of action against Mtb", "setting": "Mtb CDC1551", "value": "rapid and potent bactericidal activity"}]}
{"smiles": "NCC[C@H](O)C(=O)N[C@@H]1C[C@H](N)[C@@H](O[C@H]2O[C@H](CN)[C@@H](O)[C@H](O)[C@H]2O)[C@H](O)[C@H]1O[C@H]1O[C@H](CO)[C@@H](O)[C@H](N)[C@H]1O", "note": "[amikacin]", "values": [{"measurement": "bactericidal activity against Mab in vitro", "setting": "Mab", "value": "poor bactericidal activity"}]}
{"smiles": "ClC1CN=Cc2ccc3[n]2[Au+][n]2c(ccc2-c2nc4ccccc4nc2-3)C=NC1.F[P-](F)(F)(F)(F)F", "note": "(centres unmarked) [Compound 11]", "values": [{"measurement": "MIC Mtb", "setting": "Mtb-lux", "value": 4.06, "unit": "µM"}, {"measurement": "IC50", "setting": "[1]", "value": 108, "unit": "µM"}, {"measurement": "MIC Mab", "setting": "Mab 390S-lux", "value": 91.72, "unit": "µM"}, {"measurement": "decrease in CFU/mL, early time-point", "setting": "Mtb CDC1551; 24 h", "value": "> 1", "unit": "log"}, {"measurement": "mode of action, latest time-point", "setting": "Mtb CDC1551; 144 h, at 8, 4 and 2-fold MIC", "value": "bacteriostatic"}]}
{"smiles": "CC[C@H]1OC(=O)[C@H](C)[C@@H](O[C@H]2C[C@@](C)(OC)[C@@H](O)[C@H](C)O2)[C@H](C)[C@@H](O[C@@H]2O[C@H](C)C[C@H](N(C)C)[C@H]2O)[C@](C)(OC)C[C@@H](C)C(=O)[C@H](C)[C@@H](O)[C@]1(C)O", "note": "[clarithromycin]", "values": [{"measurement": "bactericidal activity against Mab in vitro", "setting": "Mab", "value": "poor bactericidal activity"}]}
{"smiles": "C1=NCCCN=Cc2ccc3[n]2[Au+][n]2c1ccc2-c1nc2ccccc2nc1-3.F[P-](F)(F)(F)(F)F", "note": "[Compound 8]", "values": [{"measurement": "MIC Mtb", "setting": "Mtb-lux", "value": 2.72, "unit": "µM"}, {"measurement": "IC50", "setting": "[1]", "value": 48.5, "unit": "µM"}, {"measurement": "MIC Mab", "setting": "Mab 390S-lux", "value": 849.41, "unit": "µM"}]}
